Test results reported in the NIST ThermoML archive (doi:10.1021/je1011423).
± gives the expanded uncertainty stated by the source.

Details: Crystal; thermal gravimetric analysis

With O=[N+]([O-])c1cc([N+](=O)[O-])c(O)c(Cl)c1O [2-chloro-4,6-dinitroresorcinol] the Normal melting temperature was 185.00 ± 0.01 °C.
